{
  "source": "patent US7994163B2",
  "about": "“6-substituted-2,3,4,5-tetrahydro-1H-benzo[d]azepines as 5-HT2C receptor agonists” (Eli Lilly and Company, priority 2005, dated 2011)",
  "key": {"[1]": {"system": "male NIH Swiss mice", "assay": "Marble burying assay (with rotorod)", "type": "in vivo", "details": "with rotorod performance", "protocol": "House experimentally-naïve male, NIH Swiss mice (Harlan Sprague-Dawley, Indianapolis, Ind.) weighing between 28-35 g in groups of 12 for at least three days prior to testing in a vivarium with 12 h light and dark cycles. Conduct experiments during the light cycle in a dimly lit experimental testing room. Dose mice with vehicle or test compound and, after a specified pretreatment interval (generally 30 min.), place each mouse individually on a rotorod (Ugo Basile 7650) operating at a speed of 6 revolutions/min. and observe for falling. After 2 min. on the rotorod, place the mice individually in a 17×28×12 cm high plastic tub with 5 mm sawdust shavings on the floor that are covered with 20 blue marbles (1.5 cm diameter) placed in the center. After 30 min., count the number of marbles buried (⅔ covered with sawdust). Assess the test compound's effect on marble burying with Dunnett's test and the effect on rotorod performance by Fisher's exact test.\nClinically effective standard compounds suppress marble burying at doses that are devoid of motor-impairing effects as measured on the rotorod. The in vivo efficacy of 5HT2C compounds at the 5HT2C receptor is confirmed by the prevention of effects of the 5HT2C agonists on marble burying by co-administration of the 5HT2C receptor antagonist, 6-chloro-5-methyl-N-{2-[(2-methylpyridin-3-yl-oxy)pyridin-5-yl]aminocarbonyl}-2,3-dihydroindole."}, "[2]": {"system": "Wistar rats", "details": "general statement on standards; cited from earlier work"}, "[3]": {"system": "male NIH Swiss mice", "assay": "Nestlet shredding", "type": "in vivo", "details": "with motor effects (rotorod test)", "source_text": "Mice naturally will construct nests of material available in their living environment. Since this behavior is obsessive in nature, it has been used to model OCD (Xia Li, Denise Morrow and Jeffrey M. Witkin, “Decreases in nestlet shredding of mice by serotonin uptake inhibitors: comparison with marble burying”, Psychopharmacology, submitted Jul. 14, 2003). House experimentally-naïve male, NIH Swiss mice (Harlan Sprague-Dawley, Indianapolis, Ind.) weighing between 28-35 g in groups of 12 for at least three days prior to testing in a vivarium with a 12 h light/dark cycle. Conduct experiments during the light cycle in an experimental room with normal overhead fluorescent lighting. Dose mice with vehicle or test compound and after a specified pretreatment interval (generally 30 min.), place the mice individually in a 17×28×12 cm high plastic tub with about 5 mm sawdust shavings on the floor along with a pre-weighed multi-ply gauze pad (51 mm square). After 30 min., weigh the remainder of the gauze pad not removed by the mouse. Determine the weight of the gauze used for nestlet construction by subtraction. Compare the results for test compound treated mice to the results for vehicle control treated mice with Dunnett's test.\nClinically effective OCD treatment standard compounds suppress nestlet shredding at doses that are devoid of motor-impairing effects as measured by the rotorod test. […]"}, "[4]": {"system": "Wistar rats", "assay": "Schedule-induced polydipsia", "details": "rat, in vivo", "protocol": "Maintain Wistar rats on a food restricted diet (to maintain 85% free feeding weight), but with free access to water. Train the rats in a behavioral testing chamber to press a lever to receive a food pellet under a fixed interval schedule, such that the rats are rewarded with a 45 mg food pellet the first time they press a lever after a 120 second interval has elapsed. The fixed interval is then reset to 120 seconds and the process repeated. Thus, during a 90 min. test session, the rats can earn a maximum of 45 pellets. The behavioral chamber is also equipped with a water bottle that is weighed before and after the session to determine the amount of water consumed.\nAdminister test compounds on Tuesdays and Fridays. Determine control day performances on Thursdays. Administer compounds either orally at 60 min. before the beginning of a test session, or subcutaneously at 20 min. before the beginning of a test session. Compare the rates of lever pressing and water consumption for each animal's performance during sessions after test compound treatment with that animal's performance during control sessions, expressed as a percent of the control rate. Average the individual percent of control rates for each dose and calculate the standard error of the mean. […]"}},
  "note": "Where a name gives a salt, the structure may show the parent alone.",
  "data": [
    {"smiles": "CN(C)CCCN1c2ccccc2Sc2ccc(Cl)cc21", "note": "[chlorpromazine]", "values": [
      {"measurement": "marble burying behavior", "setting": "[1]", "value": "decrease marble burying only at doses that also disrupt rotorod performance"}
    ]},
    {"smiles": "CNCCC(Oc1ccc(C(F)(F)F)cc1)c1ccccc1", "note": "(stereo not shown) [fluoxetine]", "values": [
      {"measurement": "schedule-induced polydipsia, clinically effective OCD treatment standard compounds", "setting": "[2]", "value": "suppress schedule-induced polydipsia without producing notable changes in motor patterns, food intake, or behavior the following day"}
    ]},
    {"smiles": "Clc1ccc2c(c1CSc1ncc[nH]1)CCNCC2", "note": "(as salt: phosphate) (hydrate or solvate)", "values": [
      {"measurement": "melting point", "value": "243 to 245", "unit": "°C"}
    ]},
    {"smiles": "CN(C)CCCN1c2ccccc2CCc2ccc(Cl)cc21", "note": "[chlomipramine]", "values": [
      {"measurement": "schedule-induced polydipsia, clinically effective OCD treatment standard compounds", "setting": "[2]", "value": "suppress schedule-induced polydipsia without producing notable changes in motor patterns, food intake, or behavior the following day"}
    ]},
    {"smiles": "C[C@H](N)Cc1ccccc1", "note": "[d-amphetamine]", "values": [
      {"measurement": "nestlet shredding", "setting": "[3]", "value": "decreases nestlet shredding only at doses that produce motoric side effects"},
      {"measurement": "Effect of 5-HT2C antagonist co-administration on suppression of polydipsia", "setting": "[4]", "value": "not prevented by the 5HT2C receptor antagonist"},
      {"measurement": "schedule-induced polydipsia (excessive drinking)", "setting": "[4]", "value": "decreases excessive drinking only at behaviorally stimulating doses"}
    ]}
  ]
}
